Series [1] concerns the target T1, hDDC (human Dopa decarboxylase) (Homo sapiens, UniProt P20711).
T1 construct: gene DDC; homodimer
T1 sequence (P20711 1-480): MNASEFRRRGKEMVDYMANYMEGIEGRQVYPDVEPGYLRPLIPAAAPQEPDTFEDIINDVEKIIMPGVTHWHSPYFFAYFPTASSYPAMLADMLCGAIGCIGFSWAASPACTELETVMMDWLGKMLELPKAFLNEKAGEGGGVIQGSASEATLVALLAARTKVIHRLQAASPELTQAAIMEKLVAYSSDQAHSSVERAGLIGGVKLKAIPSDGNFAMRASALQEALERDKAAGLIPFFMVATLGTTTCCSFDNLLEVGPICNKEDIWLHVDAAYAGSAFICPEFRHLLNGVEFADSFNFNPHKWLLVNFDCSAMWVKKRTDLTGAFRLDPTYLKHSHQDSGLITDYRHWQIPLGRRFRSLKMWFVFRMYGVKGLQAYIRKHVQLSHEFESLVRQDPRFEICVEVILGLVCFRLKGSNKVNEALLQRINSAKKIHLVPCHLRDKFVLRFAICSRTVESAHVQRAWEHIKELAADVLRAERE
The series can be described thus: stopped-flow absorbance at […] nm, hyperbolic fit of kobs (two-step binding). Conditions: read-out: K1.

In series [2] the target is T1, hDDC (human Dopa decarboxylase). The series can be described thus: quenching of intrinsic fluorescence of apoenzyme, tight-binding quadratic fit. The conditions noted are these: read-out: KD(PLP).
Substrate in series [3]: N[C@@H](Cc1ccc(O)c(O)c1)C(=O)O
Description: steady-state decarboxylation, spectrophotometric assay, Michaelis-Menten fit. The class given is biochemical, Homo sapiens. Conditions: pH 6.0, 50 mM Bis-Tris-propane, 10 μM PLP, 25°C.

Take `N[C@@H](Cc1ccc(O)c(O)c1)C(=O)O` [L-Dopa]: the Kd in series [1] was determined as 320 ± 20 µM.
For the molecule `Cc1ncc(COP(=O)(O)O)c(C=O)c1O` [PLP], the Kd in series [2] was determined as 0.2 µM.

B1: hDDC (human Dopa decarboxylase) (Homo sapiens) (protein)
chain: T1 sequence (P20711 1-480)
notes: homodimer
As for B1, in series [3], the Km was 230 ± 30 µM and the catalytic constant (kcat) was determined as 3 s⁻¹.

Values taken from article PMC3677616, “Interaction of Human Dopa Decarboxylase with L-Dopa: Spectroscopic and Kinetic Studies as a Function of pH” (BioMed Research International, 2013).
